Experimental data: patent US8349883B2, “Hydroxamate-based inhibitors of deacetylases B” (Novartis AG, priority 2008, dated 2013)

How the values were obtained:
HDAC-1 = target: T1, HDAC-1 (Homo sapiens, UniProt Q13547); assay: HDAC inhibition assay (purified GST-HDAC protein); format: biochemical
T1 construct: made in house; host or cells: Sf9 or Sf21 insect cells (baculovirus, donor vector pFB-GSTX3)
From the text: The baculovirus donor vector pFB-GSTX3 was used to generate a recombinant baculovirus that can express the HDAC polypeptide. Transfer vectors containing the HDAC coding region were transfected into the DH10Bac cell line (GIBCO) and plated on selective agar plates. Colonies without insertion of the fusion sequence into the viral genome (carried by the bacteria) were blue. Single, white colonies were picked and viral DNAs (bacmid) were isolated from the bacteria by standard plasmid purification procedures. Sf9 cells or Sf21 (American Type Culture Collection) cells were then transfected in […] flasks with the viral DNA using Cellfectin reagent.
Virus-containing media was collected from the transfected cell culture and used for infection to increase its titer. Virus-containing media obtained after two rounds of infection was used for large-scale protein expression. For large-scale protein expression 100 cm^2 round tissue culture plates were seeded with 5×10^7 cells/plate and infected with 1 mL of virus-containing media (at an approximately MOI of 5). After 3 days, the cells were scraped off the plate and centrifuged at 500 rpm for 5 minutes. Cell pellets from 10-20, 100 cm^2 plates, were re-suspended in 50 mL of ice-cold lysis buffer (25 mM tris-HCl, pH 7.5, 2 mM EDTA, 1% NP-40, 1 mM DTT, 1 mM P MSF). The cells were stirred on ice for 15 minutes and then centrifuged at 5,000 rpms for 20 minutes.
The centrifuged cell lysate was loaded onto a 2 mL glutathione-sepharose column (Pharmacia) and was washed thrice with 10 mL of 25 mM tris-HCl, pH 7.5, 2 mM EDTA, 1 mM DTT, 200 mM NaCl. The GST-tagged proteins were then eluted by 10 applications (1 mL each) of 25 mM tris-HCl, pH 7.5, 10 mM reduced-glutathione, 100 mM NaCl, 1 mM DTT, 10% glycerol and stored at −70° C.
HDAC assays with purified GST-HDAC protein were carried out in a final volume of 30 μL containing 15 ng of GST-HDAC protein, 20 mM tris-HCl, pH 7.5, 1 mM MnCl2, 10 mM MgCl2, 1 mM DTT, 3 μg/mL poly(Glu,Tyr) 4:1, 1% DMSO, 2.0 μM ATP (γ-[^33P]-ATP 0.1 μCi). The activity was assayed in the presence or absence of inhibitors. The assay was carried out in 96-well plates at ambient temperature for 15 minutes under conditions described below and terminated by the addition of 20 μL of 125 mM EDTA. Subsequently, 40 μL of the reaction mixture were transferred onto EMMOBILON-PVDF membrane (Millipore) previously soaked for 5 minutes with methanol, rinsed with water, then soaked for 5 minutes with 0.5% H3PO4 and mounted on vacuum manifold with disconnected vacuum source. After spotting all samples, a vacuum was connected and each well rinsed with 200 μL 0.5% H3PO4. Membranes were removed and washed four times on a shaker with 1.0% H3PO4, once with ethanol. Membranes were counted after drying at ambient temperature, mounting in Packard TopCount 96-well frame, and addition of 10 μL/well of MICROSCINT™ (Packard). IC50 values were calculated by linear regression analysis of the percentage inhibition of each compound in duplicate, at 4 concentrations (usually 0.01, 0.1, 1 and 10 μM).
• Input: 3×4 μL stopped assay on IMMOBILON membrane, not washed • Background (3 wells): assay with H2O instead of enzyme • Positive control (4 wells): 3% DMSO instead of compound • Bath control (1 well): no reaction mix
IC50 values were calculated by logarithmic regression analysis of the percentage inhibition of each compound at 4 concentrations (usually 3- or 10-fold dilution series starting at 10 μM). In each experiment, the actual inhibition by reference compound was used for normalization of IC50 values to the basis of an average value of the reference inhibitor: Normalized IC50=measured IC50 average ref IC50/measured ref IC50
Example: Reference inhibitor in experiment 0.4 μM, average 0.3 μM, Test compound in experiment 1.0 μM, normalization: 0.3/0.4=0.75 μM
For example, known HDAC inhibitors or a synthetic derivative thereof may be used as reference compounds.

HCT116 = HCT116 IC50; format: cell-based; details: Homo sapiens, HCT-116

T1 sequence (Q13547 whole entry, species assumed): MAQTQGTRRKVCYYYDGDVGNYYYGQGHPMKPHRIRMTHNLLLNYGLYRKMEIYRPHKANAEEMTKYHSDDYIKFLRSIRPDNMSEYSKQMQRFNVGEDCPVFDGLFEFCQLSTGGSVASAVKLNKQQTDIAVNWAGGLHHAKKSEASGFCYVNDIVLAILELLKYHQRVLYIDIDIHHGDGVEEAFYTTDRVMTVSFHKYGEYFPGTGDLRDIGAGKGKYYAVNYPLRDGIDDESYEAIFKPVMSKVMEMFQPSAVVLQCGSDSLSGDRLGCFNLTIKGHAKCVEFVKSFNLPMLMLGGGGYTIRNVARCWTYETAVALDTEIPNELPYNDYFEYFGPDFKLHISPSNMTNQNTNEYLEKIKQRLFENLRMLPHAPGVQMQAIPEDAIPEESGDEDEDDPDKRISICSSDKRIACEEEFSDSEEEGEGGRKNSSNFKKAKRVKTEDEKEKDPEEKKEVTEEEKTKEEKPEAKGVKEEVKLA

SMILES | IC50 (HDAC-1) [nM] | IC50 (HCT116) [nM]
O=C(/C=C/c1ccc([C@@H]2CCCN2CCS(=O)(=O)c2ccccc2)cc1)NO [Compound 98, (E)-3-{4-[(S)-1-(2-Benzenesulfonyl-ethyl)-pyrrolidin-2-yl]-phenyl}-N-hydroxy-acrylamide] | 36 | 50
O=C(/C=C/c1ccc(C2CCCN2CCc2c(-c3ccccc3)[nH]c3ccccc23)cc1)NO (stereo not drawn) [Compound 7, (E)-N-Hydroxy-3-(4-{1-[2-(2-phenyl-1H-indol-3-yl)-ethyl]-pyrrolidin-2-yl}-phenyl)-acrylamide] | 12 | 3
C[Si](C)(C)Cn1cc(CCN2CCC[C@H]2c2ccc(/C=C/C(=O)NO)cc2)nn1 [Compound 77, (E)-N-Hydroxy-3-(4-{(S)-1-[2-(1-trimethylsilanylmethyl-1H-[1,2,3]triazol-4-yl)-ethyl]-pyrrolidin-2-yl}-phenyl)-acrylamide] | 25 | 110
Cc1ccn(CCN2CCC[C@H]2c2ccc(/C=C/C(=O)NO)cc2)n1 [Compound 71, (E)-N-Hydroxy-3-(4-{(S)-1-[2-(3-methyl-pyrazol-1-yl)-ethyl]-pyrrolidin-2-yl}-phenyl)-acrylamide] | 55 | 110
O=C(/C=C/c1ccc([C@@H]2CCCN2CCc2nnn(-c3ccc([N+](=O)[O-])cc3)n2)cc1)NO [Compound 106, (E)-N-Hydroxy-3-[4-((S)-1-{2-[2-(4-nitro-phenyl)-2H-tetrazol-5-yl]-ethyl}-pyrrolidin-2-yl)-phenyl]-acrylamide] | 67 | 180
O=C(/C=C/c1ccc([C@@H]2CCCN2CCc2nnnn2-c2ccc([N+](=O)[O-])cc2)cc1)NO [Compound 107, (E)-N-Hydroxy-3-[4-((S)-1-{2-[1-(4-nitro-phenyl)-1H-tetrazol-5-yl]-ethyl}-pyrrolidin-2-yl)-phenyl]-acrylamide] | 170 | 540
O=C(/C=C/c1ccc(C2CCCN2CC(O)c2ccccc2)cc1)NO (stereo not drawn) [Compound 28, (E)-N-Hydroxy-3-{4-[1-(2-hydroxy-2-phenyl-ethyl)-pyrrolidin-2-yl]-phenyl}-acrylamide] | 25 | 85
Cc1cnn(CCN2CCC[C@H]2c2ccc(/C=C/C(=O)NO)cc2)c1 [Compound 64, (E)-N-Hydroxy-3-(4-{(S)-1-[2-(4-methyl-pyrazol-1-yl)-ethyl]-pyrrolidin-2-yl}-phenyl)-acrylamide] | 62 | 190
Cc1nn(CCN2CCC[C@H]2c2ccc(/C=C/C(=O)NO)cc2)c(C)c1C [Compound 67, (E)-N-Hydroxy-3-(4-{1-[2-(3,4,5-trimethyl-pyrazol-1-yl)-ethyl]-pyrrolidin-2-yl}-phenyl)-acrylamide] | 17 | 39
O=C(/C=C/c1ccc([C@@H]2CCCCCN2CCc2cnn3ccccc23)cc1)NO [Compound 86, (E)-N-Hydroxy-3-{4-[(S)-1-(2-pyrazolo[1,5-a]pyridin-3-yl-ethyl)-azepan-2-yl]-phenyl}-acrylamide] | 10 | 42
Cc1[nH]c2ccccc2c1CCN1CCN(C)CC1c1ccc(/C=C/C(=O)NO)cc1 (stereo not drawn) [Compound 88, (E)-N-Hydroxy-3-(4-{4-methyl-1-[2-(2-methyl-1H-indol-3-yl)-ethyl]-piperazin-2-yl}-phenyl)-acrylamide] | 9 | 24
Cn1nnc(CCN2CCC[C@H]2c2ccc(/C=C/C(=O)NO)cc2)n1 [Compound 81, (E)-N-Hydroxy-3-(4-{(S)-1-[2-(2-methyl-2H-tetrazol-5-yl)-ethyl]-pyrrolidin-2-yl}-phenyl)-acrylamide] | 67 | 230
CC(C)n1nnnc1CCN1CCC[C@H]1c1ccc(CCC(=O)NO)cc1 [Compound 115, N-Hydroxy-3-(4-{(S)-1-[2-(1-isopropyl-1H-tetrazol-5-yl)-ethyl]-pyrrolidin-2-yl}-phenyl)-propionamide] | 25 | 32
COc1ccc(C(O)CN2CCCC2c2ccc(/C=C/C(=O)NO)cc2)cc1 (stereo not drawn) [Compound 30, (E)-N-Hydroxy-3-(4-{1-[2-hydroxy-2-(4-methoxy-phenyl)-ethyl]-pyrrolidin-2-yl}-phenyl)-acrylamide] | 14 | 46
O=C(/C=C/c1ccc(C2CCCN2CCCc2c[nH]c3ccccc23)cc1)NO (stereo not drawn) [Compound 2, (E)-N-Hydroxy-3-(4-{1-[3-(1H-indol-3-yl)-propyl]-pyrrolidin-2-yl}-phenyl)-acrylamide] | 10 | 50

These reach a lower IC50 (HDAC-1). Values come first.

IC50 (HDAC-1) [nM] | IC50 (HCT116) [nM] | SMILES
2 | 2 | Cc1nn(CC2CC2)c(C)c1CCN1CCC[C@H]1c1ccc(/C=C/C(=O)NO)cc1 [Compound 62, (E)-3-(4-{(S)-1-[2-(1-Cyclopropylmethyl-3,5-dimethyl-1H-pyrazol-4-yl)-ethyl]-pyrrolidin-2-yl}-phenyl)-N-hydroxy-acrylamide]
4 | 2 | O=C(/C=C/c1ccc([C@@H]2CCCN2CCc2cnn3ccccc23)c(F)c1)NO [Compound 91, (E)-3-{3-Fluoro-4-[(S)-1-(2-pyrazolo[1,5-a]pyridin-3-yl-ethyl)-pyrrolidin-2-yl]-phenyl}-N-hydroxy-acrylamide]
1 | 0.5 | Cc1[nH]nc(C(C)(C)C)c1CCN1CCC[C@H]1c1ccc(/C=C/C(=O)NO)cc1 [Compound 100, (E)-3-(4-{(S)-1-[2-(3-tert-Butyl-5-methyl-1H-pyrazol-4-yl)-ethyl]-pyrrolidin-2-yl}-phenyl)-N-hydroxy-acrylamide]
3 | 0.6 | O=C(/C=C/c1ccc([C@@H]2CCCN2CCc2c(C(F)(F)F)nn3ccccc23)cc1)NO [Compound 46, (E)-N-Hydroxy-3-(4-{(S)-1-[2-(2-trifluoromethyl-pyrazolo[1,5-a]pyridin-3-yl)-ethyl]-pyrrolidin-2-yl}-phenyl)-acrylamide]
6 | 11 | O=C(/C=C/c1ccc(C2CCCN2CCc2ccccc2F)cc1)NO (stereo not drawn) [Compound 27, (E)-3-(4-{1-[2-(2-Fluoro-phenyl)-ethyl]-pyrrolidin-2-yl}-phenyl)-N-hydroxy-acrylamide]
5 | 39 | O=C(/C=C/c1ccc(C2CCCN2CCCc2ccccc2)cc1)NO (stereo not drawn) [Compound 33, (E)-N-Hydroxy-3-{4-[1-(3-phenyl-propyl)-pyrrolidin-2-yl]-phenyl}-acrylamide]
7 | 13 | O=C(/C=C/c1ccc([C@@H]2CCCN2CCc2ccc(Cl)cc2)cc1)NO [Compound 22, (E)-3-(4-{(S)-1-[2-(4-Chloro-phenyl)-ethyl]-pyrrolidin-2-yl}-phenyl)-N-hydroxy-acrylamide]
1 | 0.35 | CCc1nn2ccccc2c1CCN1CCC[C@H]1c1ccc(/C=C/C(=O)NO)cc1 [Compound 47, (E)-3-(4-{(S)-1-[2-(2-Ethyl-pyrazolo[1,5-a]pyridin-3-yl)-ethyl]-pyrrolidin-2-yl}-phenyl)-N-hydroxy-acrylamide]
1.7 | 5 | Cc1noc(-c2ccccc2)c1CCN1CCC[C@H]1c1ccc(/C=C/C(=O)NO)cc1 [Compound 56, (E)-N-Hydroxy-3-(4-{(S)-1-[2-(3-methyl-5-phenyl-isoxazol-4-yl)-ethyl]-pyrrolidin-2-yl}-phenyl)-acrylamide]
